Assay results taken from PubChem BioAssay (NCI).
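Tested at 5 concentrations; 48 h exposure; 96-well plates; endpoints linearly interpolated, else capped at highest concentration. TGI: total growth inhibition.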

Legend:
Assay in all cases: NCI tumour cell line growth inhibition, 48 h
ACHN renal = tested on: ACHN renal
OVCAR-5 ovarian = tested on: OVCAR-5 ovarian
CAKI-1 renal = tested on: CAKI-1 renal
KM20L2 colon = tested on: KM20L2 colon
NCI-H23 lung = tested on: NCI-H23 lung
OVCAR-3 ovarian = tested on: OVCAR-3 ovarian
SNB-75 CNS = tested on: SNB-75 CNS
SF-295 CNS = tested on: SF-295 CNS
LOX IMVI melanoma = tested on: LOX IMVI melanoma
DMS 273 small cell lung = tested on: DMS 273 small cell lung
DU-145 prostate = tested on: DU-145 prostate

SMILES | TGI (ACHN renal) [µM] | TGI (OVCAR-5 ovarian) [µM] | TGI (CAKI-1 renal) [µM] | TGI (KM20L2 colon) [µM] | TGI (NCI-H23 lung) [µM] | TGI (OVCAR-3 ovarian) [µM] | TGI (SNB-75 CNS) [µM] | TGI (SF-295 CNS) [µM] | TGI (LOX IMVI melanoma) [µM] | TGI (DMS 273 small cell lung) [µM] | TGI (DU-145 prostate) [µM]
COc1ccc(CN(CCN(C)C)c2ccccn2)cc1 (tested in a mixture with another compound) | > 100 | > 100 | > 100 | > 100 | > 100 | > 100 | > 100 | > 100 |  |  | 
COC1(OC)CC2C(=O)N(Cc3ccccc3)C1C(S(=O)(=O)c1ccccc1)C2C(C)S(=O)(=O)c1ccccc1 (configuration not stated) | > 100 | > 100 | > 100 | > 100 | > 100 | > 100 |  | > 100 | > 100 | > 100 | 
CC1(CO)C(O)CCC2(C)C1CCC1CC3CC12CCC3(O)CO (configuration not stated) |  | > 100 | > 100 | > 100 | > 100 | > 100 | > 100 | > 100 | > 100 | > 100 | 
CC(=O)Nc1ccc(-c2nnc(SCC(=O)Nc3cccc(C)c3)o2)cc1 | 22.5 | 26.7 | 30.4 | 22 | 20.4 | 24.2 | 45.8 | 22.9 | 15.6 | 23 | 
CCC(=O)OC1CCn2c1nc1c2C(=O)C(C)=C(NC(C)=O)C1=O (configuration not stated) | 11.7 | 3.39 | 3.61 |  | 3.49 | 0.572 | 10.3 | 4.53 | 2.7 | 3.37 | 
C[N+]1=C(c2cccnc2/C=N/O)OCC1(C)C | > 100 | > 100 | > 100 | > 100 | > 100 | > 100 | > 100 | > 100 | > 100 | > 100 | 
CC(=O)c1ccc(N2C(=O)C3c4[nH]c5ccccc5c4C4CCC(C(C)(C)C)CC4C3C2=O)cc1 (configuration not stated) | 87.9 |  |  | 36.4 | 45.3 |  | 94.7 | 88.9 |  | 33.3 | 
c1ccc(-c2csc3c2-n2cccc2C3N2CCCC2)cc1 (configuration not stated) | > 100 | > 100 | > 100 |  | > 100 | > 100 | > 100 | > 100 | > 100 |  | > 100
C[C@@H]1C[C@H]2OC(=O)[C@@]3(C)CCC[C@@](C)([C@@H]23)[C@@]1(O)CCc1ccoc1 | > 100 | > 100 | > 100 |  | > 100 | > 100 | > 100 | > 100 | > 100 |  | > 100
O=C(N/N=C(/COc1ccccc1)N=Cc1ccncc1)c1ccncc1 | > 100 | > 100 | > 100 |  | > 100 | > 100 | > 100 | > 100 | > 100 |  | > 100
Cc1ccc2nc(N)[nH]c(=O)c2c1Sc1ccncc1 | > 100 | > 100 | > 100 | > 100 | > 100 | > 100 | > 100 | > 100 | > 100 | > 100 | 
O=c1oc2ccc([N+](=O)[O-])cc2nc1/C=C(\O)c1ccccc1 | > 100 | > 100 | > 100 |  | > 100 | > 100 | > 100 | > 100 | > 100 |  | > 100
CCOC(=O)/C=C/n1c2ccccc2c(=O)c2cc(OC)ccc21 | > 100 | > 100 | > 100 | > 100 | > 100 | > 100 | > 100 | > 100 | 41.3 | > 100 | 
Cc1ccc(S(=O)(=O)NC(=O)C2S(=O)(=O)OCCOS2(=O)=O)cc1 |  |  | > 100 |  | > 100 | > 100 | > 100 | > 100 |  | > 100 | 
COc1ccc(-c2nc(-c3ccc(OC)cc3)n(-c3ccccc3)n2)cc1 | > 100 | > 100 | > 100 |  | > 100 | > 100 | > 100 | > 100 | > 100 |  | > 100
O=C1NC(=O)C(C(=O)C(=O)Nc2cc(Cl)ccc2Cl)C(=O)N1 | > 100 | > 100 |  | > 100 | > 100 | > 100 | > 100 | > 100 |  |  | 
N=c1c2sc3nc4ccccc4n3c2ncn1Cc1ccccc1 | > 100 | > 100 | > 100 |  | > 100 | > 100 | > 100 | > 100 | > 100 |  | > 100
CCO/C(O)=C(/C(=N)N1CCOCC1)C(=O)Nc1cccc(C(F)(F)F)c1 | > 100 | > 100 | > 100 |  | > 100 | > 100 | > 100 | > 100 | > 100 |  | > 100
CCCCn1c(-c2ccccc2)cs/c1=N\N=C1C=C(C(C)(C)C)C(=O)C(C(C)(C)C)=C1 | > 100 | > 100 | > 100 | > 100 | > 100 | > 100 |  | > 100 | > 100 | > 100 | 
N/C(=N\N=C\c1cc2ccccc2s1)c1cnccn1 | > 100 | > 100 | > 100 |  | > 100 | > 100 | 79.3 | > 100 | > 100 |  | > 100
Cc1ccc(S(=O)(=O)N(CC(O)COc2ccccc2)c2c(F)c(F)cc(F)c2F)cc1 (configuration not stated) | 54.1 | 76.3 | 37.1 |  | 43.2 | 54.1 | 42.6 | 62 | 37.6 |  | > 100
CC1=C(C(=O)NNC(=O)Cc2ccccc2)CC(C(=O)NNC(=O)Cc2ccccc2)=C(C)N1 | > 100 | > 100 | > 100 |  | > 100 | > 100 | > 100 | > 100 | > 100 |  | > 100
Cc1ccsc1/C=N/NC1=NCCN1 | > 100 | > 100 | > 100 |  | > 100 | > 100 | > 100 | > 100 | > 100 |  | > 100
